# Reference: patent US20250235450A1, “COMBINATION THERAPIES COMPRISING APREMILAST AND TYK2 INHIBITORS” (Celgene Corporation, priority 2019, published 2025)
# Where two headings read alike, the source gives them in different places.
# Assays:
# LPS stimulated PBMCs = test: Viability of LPS stimulated PBMCs; format: cell-based, human; design: key: ↑: Induced; —: No change; ↓: Reduced
# [1] = tested on: anti-CD3/anti-CD28 (Th0) or anti-CD3/anti-CD28, IL-1β, IL-6 and IL-23 (Th17) stimulated whole blood; test: Ex-vivo TruCulture tube assay: cytokine production in stimulated whole blood; format: cell-based, human; settings: for inhibition at 1 µM: Homo sapiens
# Procedure: Whole blood was received through the Celgene Donor program after informed consent and donor deidentification. All volunteers were healthy and were not on any medications for at least 72 hours prior to the blood draw. Blood was collected in sodium heparin tubes. The assay was started within 2 hours of the blood draw.
# An ex-vivo stimulation of healthy donor human whole blood was performed under two different stimulation conditions. Condition Th0 was a stimulation with TruCulture® tubes containing anti-CD3/anti-CD28. Condition Th17 was a stimulation with TruCulture® tubes containing anti-CD3/anti-CD28 plus IL-1β, IL-6 and IL-23. Whole blood was separated into 15 milliliter conical tubes and pre-treated with DMSO, apremilast alone, BMS-986165 alone or BMS-986165 combined with apremilast. Final concentrations were 0.2% DMSO, 1 μM for apremilast alone, 1 μM, 0.1 μM, 0.01 μM and 0.001 μM BMS-986165 alone and in combination with 1 μM apremilast. Blood was mixed well and then incubated in a 37° C./5% CO2 incubator for 1 hour.
# The anti-CD3/anti-CD28 (200 ng/ml and 330 ng/ml final concentrations respectively) TruCulture® tubes were thawed on the bench top for 30 minutes and then labeled. Plungers were pressed and then broken off. TruCulture® tubes were placed in a rack standing upright such that the plunger side is pointing down in the rack and the tube-cap is pointing up. While blood was incubating with compound Human recombinant IL-6, IL-1β and IL-23 were added to all Th17 tubes in the following concentrations: 120 ng IL-6, 120 ng IL-1b and 150 ng IL-23. One ml of the pre-treated whole blood was placed in each tube, using sterile pyrogen-free pipette tips. The cap was replaced and the contents of the tube were mixed by inverting 3 times. The tubes were immediately placed in a 37° C. heat block and incubated for 42 hours (tube-cap end). After the 42 hours the tubes were removed from the heat block, tops were unscrewed and 250 μl of the supernatant was removed and transferred into three 96-well polypropylene plates. Samples were immediately frozen at −80° C. The supernatants were then thawed at room temperature and tested neat for cytokine production by Luminex Multi-Plex MagPix technology (Millipore) or IL-22 by ELISA (Abcam). The manufacturer's procedures were followed accordingly.
# Data processing for the cytokine analysis was done using Milliplex Analyst (Millipore), and raw data was exported to Excel template for the cytokine analysis. Data from the template was plotted using GraphPad Prism 7.0 (GraphPad Software, Inc., La Jolla, CA) and expressed as pg/ml or % of control. Statistical analysis was also performed using One Way Anova and Dunnett's Post Test.
# To evaluate the combinatory effect of apremilast and BMS-986165, data from the two independent treatments were analyzed by comparing the combinatory response against the theoretical additive response of the two agents. The expected additive effect of two agents (A and B) was calculated using the fractional product method: (fu)A,B=(fu)A×(fu)B; where fu=fraction unaffected by treatment.
structure (smiles),measurement,setting,value
"CCOc1cc([C@@H](CS(C)(=O)=O)N2C(=O)c3cccc(NC(C)=O)c3C2=O)ccc1OC [Apremilast, N-[2-[(1S)-1-(3-ethoxy-4-methoxyphenyl)-2-(methylsulfonyl)ethyl]-2,3-dihydro-1,3-dioxo-1H-isoindol-4-yl]acetamide]",Viability,LPS stimulated PBMCs,—
same,inhibition at 1 µM,"[1]; Th0, 1 μM apremilast, read-out: inhibition of IL-17F production",69%
same,inhibition at 1 µM,"[1]; Th0, 1 μM apremilast, read-out: inhibition of TNF-α levels",90%
same,inhibition at 1 µM,"[1]; Th17, 1 μM apremilast, read-out: inhibition of IL-17F production",49%
same,inhibition at 1 µM,"[1]; Th17, 1 μM apremilast, read-out: inhibition of TNF-α levels",94%
same,CCL20 % of Control,"[1]; Th0, 1 μM apremilast",59.5 % of Control
same,GM-CSF % of Control,"[1]; Th0, 1 μM apremilast",20.3 % of Control
same,IFN-γ % of Control,"[1]; Th0, 1 μM apremilast",9.3 % of Control
same,IL-1β % of Control,"[1]; Th0, 1 μM apremilast",16.4 % of Control
same,IL-2 % of Control,"[1]; Th0, 1 μM apremilast",17.9 % of Control
same,IL-4 % of Control,"[1]; Th0, 1 μM apremilast",30.3 % of Control
same,IL-5 % of Control,"[1]; Th0, 1 μM apremilast",6.2 % of Control
same,IL-6 % of Control,"[1]; Th0, 1 μM apremilast",52.8 % of Control
same,IL-10 % of Control,"[1]; Th0, 1 μM apremilast",41.6 % of Control
same,IL-13 % of Control,"[1]; Th0, 1 μM apremilast",15.3 % of Control
same,IL-17A % of Control,"[1]; Th0, 1 μM apremilast",71.6 % of Control
same,IL-17F % of Control,"[1]; Th0, 1 μM apremilast",31.8 % of Control
same,IL-21 % of Control,"[1]; Th0, 1 μM apremilast",62.9 % of Control
same,IL-22 % of Control,"[1]; Th0, 1 μM apremilast",14.8 % of Control
same,IL-23 % of Control,"[1]; Th0, 1 μM apremilast",82.1 % of Control
same,TNF-α % of Control,"[1]; Th0, 1 μM apremilast",10.7 % of Control
same,inhibition of IL-17A cytokine expression,"[1]; Th0, 1 μM apremilast",28%
same,inhibition of IL-22 cytokine expression,"[1]; Th0, 1 μM apremilast",85%
same,reduction of GM-CSF cytokine expression,"[1]; Th0, 1 μM apremilast",80%
same,IL-17A levels,"[1]; Th0, 1 μM apremilast, control 138 pg/mL",93 pg/mL
same,IL-17F levels,"[1]; Th0, 1 μM apremilast, control 1085 pg/mL",368 pg/mL
same,TNF-α levels,"[1]; Th0, 1 μM apremilast, control 1380 pg/mL",148 pg/mL
same,"effect on GM-CSF, statistical significance","[1]; Th0 and Th17, apremilast",significantly inhibited
same,CCL20 % of Control,"[1]; Th17, 1 μM apremilast",220.3 % of Control
same,GM-CSF % of Control,"[1]; Th17, 1 μM apremilast",33.8 % of Control
same,IFN-γ % of Control,"[1]; Th17, 1 μM apremilast",18.7 % of Control
same,IL-1β % of Control,"[1]; Th17, 1 μM apremilast",98 % of Control
same,IL-2 % of Control,"[1]; Th17, 1 μM apremilast",14.4 % of Control
same,IL-4 % of Control,"[1]; Th17, 1 μM apremilast",36.7 % of Control
same,IL-5 % of Control,"[1]; Th17, 1 μM apremilast",4.8 % of Control
same,IL-6 % of Control,"[1]; Th17, 1 μM apremilast",95.3 % of Control
same,IL-10 % of Control,"[1]; Th17, 1 μM apremilast",32.6 % of Control
same,IL-13 % of Control,"[1]; Th17, 1 μM apremilast",22.1 % of Control
same,IL-17A % of Control,"[1]; Th17, 1 μM apremilast",102.4 % of Control
same,IL-17F % of Control,"[1]; Th17, 1 μM apremilast",59.7 % of Control
same,IL-21 % of Control,"[1]; Th17, 1 μM apremilast",76.2 % of Control
same,IL-22 % of Control,"[1]; Th17, 1 μM apremilast",57.5 % of Control
same,IL-23 % of Control,"[1]; Th17, 1 μM apremilast",94.3 % of Control
same,TNF-α % of Control,"[1]; Th17, 1 μM apremilast",5.8 % of Control
same,effect on IL-17A cytokine expression,"[1]; Th17, 1 μM apremilast",no effect
same,inhibition of IL-22 cytokine expression,"[1]; Th17, 1 μM apremilast",41%
same,reduction of GM-CSF cytokine expression,"[1]; Th17, 1 μM apremilast",66%
same,TNF-α levels,"[1]; Th17, 1 μM apremilast, control 1436 pg/mL",91 pg/mL
same,IL-17F levels,"[1]; Th17, 1 μM apremilast, control 6524 pg/mL",3643 pg/mL
same,effect on GM-CSF production,"[1]; whole blood, Th0 and Th17",inhibited
same,effect on TNF-α production,"[1]; whole blood, Th0 and Th17",inhibited
